These results are taken from patent US20230055441A1 (NONO INC., priority 2020, published 2023).

“Also recorded” adds a separate entry of the source. Read-outs that look alike come from different tables or passages of the source. Square brackets hold non-standard residues; d marks the D form. Ends that are not written are not given here. Peptide text beside a SMILES is read from it.

The subject of data set [1] is rt-PA.
The target of data set [2] is T1, plasmin (Homo sapiens, UniProt P00747).
T1 construct: NA-1 was digested with plasmin
T1 sequence (P00747 581-810 limits assumed, species assumed): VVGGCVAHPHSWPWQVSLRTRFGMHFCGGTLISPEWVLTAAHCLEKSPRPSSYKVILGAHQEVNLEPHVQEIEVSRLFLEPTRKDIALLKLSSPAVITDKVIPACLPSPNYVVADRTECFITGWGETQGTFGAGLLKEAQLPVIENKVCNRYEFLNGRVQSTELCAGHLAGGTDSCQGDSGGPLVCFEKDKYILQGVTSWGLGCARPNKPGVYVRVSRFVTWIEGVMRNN
T1 sequence (P00747 97-580 limits assumed, species assumed): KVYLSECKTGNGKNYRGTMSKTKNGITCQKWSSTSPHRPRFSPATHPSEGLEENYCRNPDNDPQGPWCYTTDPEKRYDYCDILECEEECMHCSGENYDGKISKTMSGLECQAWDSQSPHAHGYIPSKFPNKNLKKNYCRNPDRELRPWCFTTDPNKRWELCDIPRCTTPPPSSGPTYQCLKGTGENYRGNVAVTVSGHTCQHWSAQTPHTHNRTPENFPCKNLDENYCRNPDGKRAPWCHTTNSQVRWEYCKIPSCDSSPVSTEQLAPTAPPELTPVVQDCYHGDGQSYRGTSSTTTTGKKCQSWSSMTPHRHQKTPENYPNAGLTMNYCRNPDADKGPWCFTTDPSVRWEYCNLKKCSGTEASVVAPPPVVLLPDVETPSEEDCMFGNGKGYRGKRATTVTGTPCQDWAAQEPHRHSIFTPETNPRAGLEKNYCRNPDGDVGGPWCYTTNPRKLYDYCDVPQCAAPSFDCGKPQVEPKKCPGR
The format is in vitro ADME.

A further data set has as its target tPA (Homo sapiens, UniProt P00750).
For data set [3] the following is noted: rat, in vivo, 25 mg/kg.
Description: (§1) Rats were anaesthetized in the supine position (Isoflurane 1.5-%) and allowed to breath spontaneously in 0.5 L/min 02. The left femoral artery was cannulated for blood sampling.
(§2) Test agents were prepared at the stablish concentration in a total volume of vehicle. Pulmonary instillation was performed by intubation with a 14G catheter connected to a 1 cc syringe and the test agent will be delivered through the catheter. Subcutaneous (SQ or SC) injection was injected into the area of the left flank, no more than 2 ml of total volume per site.
(§3) Each dose was evaluated in 3 rats for each administration strategy. […] For the first experiment, evaluating two different administration routes (SQ and PI), blood samples were collected at 8 different timepoints: Pre and at 7 additional times (1, 2.5, 5, 10, 15, 30, 60 min) post dose (250 ul/sample). For the 24-hour PK curve experiment, blood samples were collected at 11 timepoints: Pre, 2.5, 5, 10, 15, 30, 60 min, 3 hr, 6 hr, 12 hr and 24 hr.
(§4) HPLC quantification: Plasma was separated from blood and stored at −80° C. until used. Each sample was precipitated by adding 1M HCl (10 ul/100 ul sample) at >80° C., centrifuged (12,000 rpm×15 min) and the precipitate collected. A 5 cm C—18 RP-HPLC column was equilibrated with 10% acetonitrile with 0.1% TFA at 40° C., the sample was injected and run in an Agilent 1260 Infinity Quaternary LC System. (30 min at 1.5 mL/min; gradient from 10% to 35% acetonitrile in 0.1% TFA; Absorbance detected at 220 nm). Standard curves for HPLC were generated from plasma samples spiked with known quantities of test agent.
Another data set concerns the target PSD95PDZ2 (Homo sapiens, UniProt P78352). Nature of the data set: Competitive ELISA with biotinylated-NA-1 on coated PSD95PDZ2. In kind it is binding. Particulars: for EC50 compared among NA-1, D-Tat-L-2B9C and D-NA-1: FIG. 12. Here is the method:
Binding was evaluated with a competitive ELISA assay. A plate was coated with 1 ug/ml PSD95PDZ2 in 50 mM bicarbonate buffer overnight at 4C. The plate was blocked in 2% BSA in PBST (0.05%) for 2 h at room temperature. […] The wells were washed again, and then incubated with TMB solution for 10 min. The reaction was stopped with 100 ul H2SO4. Absorbance was determined at 450 nm with the synergy H1 reader.

The subject of another data set is histamine. The settings on record: rat, in vivo, iv, 7.6 mg/kg.
Data set [4] in a line: Plasma concentrations 15 minutes after subcutaneous dose in rats of the 3-pial vessel occlusion study. The format is in vivo. Particulars: rat, single subcutaneous administration 25, 7.6, 2.5 mg/kg. The method, then: Unlike transient models of stroke in rats where much lower doses are required for neuroprotection, neuroprotection in 3 pial vessel occlusion models of stroke seems to require plasma concentrations of nerinetide at or above 2 ug/mL (or molar equivalent). […] Although the plasma levels continue to increase through about 3 hours then decrease, it is important to achieve rapid accumulation in the blood and brain for emergency indications like stroke. […] For pharmacokinetic sample analysis, calibration standard samples at concentrations of 0, 2.5, 5, 10, 15, 20 and 40 ug/mL of nerinetide were prepared by spiking 1 μL of the appropriate stock to 100 μL of plasma. […] Data is presented as mean±SD.

For data set [5], the target named is T1, plasmin. The format is in vitro ADME. The source says:
Plasmin is a serum protease induced by thrombolytic agents, such as tPA. Plasmin cleavage sites can occur on the C-terminal side of basic amino acids residues in a peptide formed of L-amino acids. NA-1 was digested with plasmin and the products analyzed by mass spectrometry. […] However, cleavage at the other two sites may occur to a lesser extent.
This is another data set of the same source.

The nature of data set [6]: Pharmacokinetic analysis in rats by route (subcutaneous, pulmonary instillation, intramuscular, intravenous). Particulars: rat.
Description: as §1, §2, §3, §4
For data set [7] the following is noted: 2.6 mg/kg dose; cited from earlier work.
Data set [8] concerns embolic MCA occlusion model. Description: Embolic MCA occlusion model (eMCAo). The format is in vivo.
Data set [9] relates to rt-PA. Description: Degradation in human plasma in vitro with rt-PA. The settings on record: given simultaneously with rt-PA (tPA).
Data set [10] has as its system TNK-tissue plasminogen activator. Nature of the data set: Degradation in rat plasma with TNK-tissue plasminogen activator. The settings on record: given simultaneously with TNK.
Excerpt: (§5) The experiment was repeated using TNK-tissue plasminogen activator in place of tPA.
The target of another data set is T2, NMDAR2B:PSD-95 complexes (Rattus norvegicus, UniProt P31016).
T2 construct: Cortical stroke areas were collected for analysis; from tissue; host or cells: rat brain, cortical stroke area, after in vivo dosing
T2 sequence (P31016 whole entry, one chain of several): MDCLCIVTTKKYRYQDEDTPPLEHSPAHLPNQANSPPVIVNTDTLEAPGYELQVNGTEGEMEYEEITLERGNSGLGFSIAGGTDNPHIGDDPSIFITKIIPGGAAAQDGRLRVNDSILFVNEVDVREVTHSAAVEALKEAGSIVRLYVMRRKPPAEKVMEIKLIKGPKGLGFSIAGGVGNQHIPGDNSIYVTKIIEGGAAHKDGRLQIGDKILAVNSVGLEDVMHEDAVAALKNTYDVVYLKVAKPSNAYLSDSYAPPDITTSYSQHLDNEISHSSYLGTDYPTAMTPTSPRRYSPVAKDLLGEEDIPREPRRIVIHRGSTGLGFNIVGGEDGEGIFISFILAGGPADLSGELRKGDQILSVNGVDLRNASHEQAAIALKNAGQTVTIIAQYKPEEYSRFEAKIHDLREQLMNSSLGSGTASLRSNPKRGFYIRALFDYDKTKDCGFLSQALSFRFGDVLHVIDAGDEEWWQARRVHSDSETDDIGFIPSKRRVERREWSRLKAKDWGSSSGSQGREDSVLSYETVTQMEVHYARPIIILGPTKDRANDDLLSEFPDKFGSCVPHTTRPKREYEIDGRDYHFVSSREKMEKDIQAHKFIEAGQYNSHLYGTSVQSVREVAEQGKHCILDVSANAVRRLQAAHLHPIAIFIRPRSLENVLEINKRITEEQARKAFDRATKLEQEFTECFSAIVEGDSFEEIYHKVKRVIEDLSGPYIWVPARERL
Nature of the data set: Dissociation of NMDAR2B:PSD-95 complexes in three pial vessel model (3PVo), immunoprecipitation and Western blotting. In kind it is in vivo, Sprague-Dawley rats. Particulars: 7.6 mg/kg 1 hr after stroke onset, brains harvested 2 h after onset, rat 3PVo. The method, then:
Sprague-Dawley rats were subject to three pial vessel model (3PVo). […] Brains were harvested 2 h after stroke onsets. Cortical stroke areas were collected for analysis. Immunoprecipitations were performed with anti-PSD-95 or anti-NMDAR2B. The amount of PSD-95 and NMDAR2B in samples was analyzed by Western blotting. Reduction in PSD-95-NMDAR2B complex formation was assessed by fold decrease of placebo versus treatment.

The subject of data set [11] is rt-PA. Description: Degradation in rat plasma in vitro with rt-PA.
The subject of data set [12] is 3-pial vessel occlusion model of stroke. The settings on record: for infarct volume: versus placebo. The method, then: Treatments were administered subcutaneously as a bolus injection, 60 minutes after the onset of stroke. […] Data is presented as mean±SD, N=10/group. The asterisk (*) represents statistical significance when compared to Placebo (ANOVA, with a Tukey's post-hoc analysis, *P<0.0332, **P<0.0021, ***P<0.0002 and ****P<0.0001).

Data set [13] can be described thus: NA-1 plasma levels after administering NA-1 and tPA to rats. Set-up: species or system rat. The settings on record: rats in vivo, rt-PA 5.4 mg/kg, versus NA-1 alone.
The test system of data set [14] is TNK-tissue plasminogen activator. Nature of the data set: Degradation in human plasma with TNK-tissue plasminogen activator. Particulars: given simultaneously with TNK.
Excerpt: as §5
Setting [15] is: intramuscular versus intravenous.
Setting [16] is: without tPA, 7.6 mg/kg IV bolus 1 hour after stroke onset.

PSD95PDZ2, sequence (P78352 160-246 limits assumed): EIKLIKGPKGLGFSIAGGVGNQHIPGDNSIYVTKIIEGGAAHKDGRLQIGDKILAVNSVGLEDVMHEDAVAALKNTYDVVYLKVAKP
tPA, sequence (P00750 36-562): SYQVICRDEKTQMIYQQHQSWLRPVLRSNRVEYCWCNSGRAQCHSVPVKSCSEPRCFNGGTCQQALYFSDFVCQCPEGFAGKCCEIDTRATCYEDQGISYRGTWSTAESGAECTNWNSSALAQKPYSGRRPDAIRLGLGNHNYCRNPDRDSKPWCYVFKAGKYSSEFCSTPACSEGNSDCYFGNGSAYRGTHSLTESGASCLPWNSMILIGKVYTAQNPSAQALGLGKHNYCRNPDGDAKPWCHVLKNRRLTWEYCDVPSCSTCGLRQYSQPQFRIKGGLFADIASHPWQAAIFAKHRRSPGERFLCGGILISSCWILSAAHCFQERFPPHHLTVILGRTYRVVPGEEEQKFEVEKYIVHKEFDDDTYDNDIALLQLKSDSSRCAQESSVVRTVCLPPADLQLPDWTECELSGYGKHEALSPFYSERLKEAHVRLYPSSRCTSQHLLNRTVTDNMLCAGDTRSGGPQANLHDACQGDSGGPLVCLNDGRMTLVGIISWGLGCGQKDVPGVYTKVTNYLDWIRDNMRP
Description for histamine: Blood samples were collected at 11 timepoints: Pre, 2.5, 5, 10, 15, 30, 60 min, 3 hr, 6 hr, 12 hr and 24 hr. Histamine levels were quantified by using commercially available histamine ELISA assay kit (Histamine ELISA-H1531-K01, Eagle Bioscience). The plates were coated with the plasma samples (50 ul/well) incubated for 60 minutes at room temperature on an orbital shaker with medium frequency. Then 100 ul of enzyme conjugate was added to the wells and incubated for 20 minutes at room temperature. Samples were washed again, and then incubated for 25 minutes at room temperature with TMB solution. The reaction was stopped with 100 ul H2SO4. Absorbance was determined on an ELISA plate reader at 450 nm.
Blood samples were taken at pre-injection and at 0, 1, 2.5, 5, 10, 15, 30- and 60-minutes post dose and used for histamine levels quantification using commercially available kit.

Regarding `CC[C@H](C)[C@H](NC(=O)[C@H](CO)NC(=O)[C@H](CO)NC(=O)[C@H](CC(C)C)NC(=O)[C@H](CCCCN)NC(=O)[C@@H](CCCNC(=N)N)NC(=O)[C@@H](CCCNC(=N)N)NC(=O)[C@@H](CCCNC(=N)N)NC(=O)[C@@H](CCC(N)=O)NC(=O)[C@@H](CCCNC(=N)N)NC(=O)[C@@H](CCCNC(=N)N)NC(=O)[C@@H](CCCCN)NC(=O)[C@@H](CCCCN)NC(=O)[C@@H](CCCNC(=N)N)NC(=O)CNC(=O)[C@H](N)Cc1ccc(O)cc1)C(=O)N[C@@H](CCC(=O)O)C(=O)N[C@@H](CO)C(=O)N[C@@H](CC(=O)O)C(=O)N[C@H](C(=O)O)C(C)C` [D-TAT-L-2B9c] (H-[dY]G[dR][dK][dK][dR][dR][dQ][dR][dR][dR]KLSSIESDV-OH; N-terminus and C-terminus assumed), the “peptide content / degradation in human plasma with rt-PA” value in the data set with rt-PA [1] was “resistant to proteolysis”. Also, the “degradation by plasmin in PBS” value on plasmin [2] is “resistant to plasmin cleavage”. Also, at tPA, the “degradation by tPA or TNK in PBS without plasma” value is “no degradation”. For the same compound, in data set [3], the “AUC / plasma exposure, subcutaneous” value was “also increased Cmax and AUC relative to subcutaneous NA-1 but not to the same extent”; the “Cmax, subcutaneous” value is “also increased Cmax and AUC relative to subcutaneous NA-1 but not to the same extent”. For the same compound, at PSD95PDZ2, the IC50 was < 5 µM; the “EC50 compared among NA-1, D-Tat-L-2B9C and D-NA-1” value is given as “about the same within experimental error”. In addition, in the data set on histamine, the histamine release result is on record as “did result in significant histamine release”.

On to YGRKKRRQRRRKLSSIESDV [NA-1], for which, on plasmin [2], the “degradation by plasmin in PBS” value was “rapidly degraded”. Moreover, the “dose proportionality between treatment dose and Cmax” value in data set [4] was “dose proportionality”. Besides, at plasmin [5], the plasmin cleavage sites entry was “cleavage at seven of nine potential sites”. Further, in data set [6] (setting [15]), the “AUC, intramuscular” value is listed as “somewhat higher AUC”; the “Cmax, intramuscular” value is recorded as “lower CMax”; the “half-life, intramuscular” value was “higher half-life”. Besides, the “half-life, subcutaneous” value in [6] (subcutaneous versus same dose intravenous NA-1) is reported as “longer half-life”. For the same compound, in data set [6] (subcutaneous, 25 mg/kg (Table 4), NA-1 versus IV NA-1, others versus subcutaneous NA-1), the “Cmax, subcutaneous” value is on record as “much lower CMax”. For the same compound, the “AUC / plasma exposure, subcutaneous” value in data set [6] (subcutaneous, 25 mg/kg (Table 4), NA-1 versus IV NA-1, others versus subcutaneous NA-1, 25 mg/kg) is reported as “somewhat lower AUC”. In [7], the “effective plasma concentration in human studies” value was ~10 µg/mL. The infarction volume result in data set [8] (tPA co-administered (rt-PA 5.4 mg/kg), 7.6 mg/kg IV 1 hour after stroke onset) is recorded as “reducing its effect”. For the same compound, in data set [8] (setting [16]), the infarction volume result is “significantly reduced infarction volume and right hemisphere swelling”; the right hemisphere swelling entry was “significantly reduced infarction volume and right hemisphere swelling”. Also, the “peptide content / degradation in human plasma with rt-PA” value in the data set with rt-PA [9] is listed as “decayed much more rapidly when tPA was co-administered; also recorded: significantly reduced”. Also, the “peptide content / degradation in rat plasma with TNK” value in data set [10] is reported as “rapid degradation; also recorded: reduced”. Further, on NMDAR2B:PSD-95 complexes, the “dissociation of preformed NMDAR2B:PSD-95 complexes” value is on record as “able to dissociate preformed NMDAR2B:PSD-95 complexes”. Also, the “peptide content / degradation in rat plasma with rt-PA” value in the data set with rt-PA [11] (given simultaneously with rt-PA (tPA)) is “decayed much more rapidly when tPA was co-administered; also recorded: significantly reduced”. Further, the “time to decay to zero with tPA” value in the data set with rt-PA [11] (treated with tPA) was ≤ 15 min. Besides, the “EC50 compared among NA-1, D-Tat-L-2B9C and D-NA-1” value on PSD95PDZ2 is reported as “about the same within experimental error”. Besides, the “binding to PSD-95 PDZ2 domain” value on PSD95PDZ2 (competitive ELISA) is “high binding affinity”. In addition, in data set [12] (7.6 mg/kg subcutaneous bolus 60 minutes after onset of stroke), the infarct volume entry is recorded as “failed to achieved infarct volume reduction”. Further, in data set [12] (25 mg/kg subcutaneous bolus 60 minutes after onset of stroke), the infarct volume entry is “significant reduction in infarct volume”. For the same compound, the “plasma concentration required for neuroprotection” value in [12] (rat, in vivo) is ≥ 2 µg/mL. For the same compound, in data set [13], the “AUC when administered simultaneously with rt-PA” value is recorded as “significantly reduced” and the “Cmax when administered simultaneously with rt-PA” value is reported as “significantly reduced”. For the same compound, the “peptide content / degradation in human plasma with TNK” value in data set [14] is reported as “rapid degradation; also recorded: reduced”.
